# Experimental data taken from article PMC11504387, “Synthesis and Biological Activity Assessment of 2-Styrylbenzothiazoles as Potential Multifunctional Therapeutic Agents” (Antioxidants, 2024).
# What was measured:
# [1] = system: PMNL; assay: ROS production in PMA-stimulated PMNL; assay type: cell-based, human; conditions: 10 µM, mean ± SD
# Experimental: After 10 min at 37 °C, PMA (0.1 μM) was added. The fluorescence emission at 530 nm was measured after excitation at 485 nm in a thermally controlled (37 °C) NOVOstar microplate reader (BMG Lab technologies GmbH, Offenburg, Germany). […] ROS generation was induced by phorbol-12-myristate-13-acetate (PMA), a widely recognized agent for stimulating ROS production in neutrophils and enhancing endogenous superoxide formation. Diphenyleneiodonium (DPI, 10 µM), a NADPH oxidase inhibitor, served as a positive control. Through this assay, we could assess the potential interaction of our compounds with intracellular ROS production and their capacity to act as radical scavengers within a relevant cellular context. Furthermore, the outcomes provided additional insights into their inhibitory mechanism and helped to determine whether they act directly or non-specifically, as there is evidence that an impact on the ROS levels in PMNL could be translated to modulation of 5-LO activity in the cellular environment. […] With those data in hand, together with 5-LO inhibition assay outcomes, a direct inhibition of the enzyme stands as the best fitting option regarding the mechanism of action of compounds BZTst4 and BZTst6. […] This phenomenon was not further explored because such investigation was beyond the scope of this work.
# [2] = In vitro filtering parameters of O/W sunscreen formulation on PMMA plates; conditions: 3% in O/W sunscreen formulation
# Experimental: Synthesized compounds were incorporated at 3% concentration in a suitable oil-in-water (O/W) emulsion for cosmetic use as sunscreen.
# INCI: Aqua, Glycerin, Xanthan Gum, Phenoxyethanol (and) Ethylhexylglycerin, Tribehenin PEG-20 Esters, Cetearyl Alcohol, Dicaprylyl Carbonate, PPG 26 Buteth-26 (and) PEG 40 Hydrogenated Castor Oil, C12-15 Alkyl Benzoate, Sodium hydroxide (sol. 10%).
# A protocol previously reported by us was adopted. Briefly, 32.5 mg of each compound formulation was spread on the rough surface of 5 × 5 cm^2 PMMA plates in the form of small drops of approximately equal mass, in triplicate. The plates were placed in the dark for 15–30 min to allow the formation of a sun-stabilised standard layer and then inserted into the instrument and measured at five different points on each plate (UV transmittance range 290–400 nm). The blank was a plate coated with 32.5 mg glycerine, chosen for its non-fluorescence and UV transparency. In addition, in vitro SPF, UVAPF and ʎc values were calculated according to Equations (2)–(4) above. To evaluate the booster effect of selected synthesized compounds, they were incorporated at 3% concentration in an oil-in-water (O/W) sunscreen formulation with fixed SPF and UVAPf values (30 and 10, respectively).
# Aiming to create compounds with diverse biological activities, the synthesized 2-styrylbenzothiazoles were examined for potential applications in sunscreens. Each candidate was incorporated into a standard cosmetic formulation at a concentration of 3% and subjected to photoprotective efficacy testing using the Diffey–Robson method. The formulation comprised an oil-in-water (O/W) emulsion suitable for sunscreen use, with each benzothiazole derivative being heat-solubilized in the oil phase and then dispersed into the emulsion using a turbo emulsifier. The mixture was then cooled, and the emulsion was spread onto polymethylmethacrylate (PMMA) plates before recording the transmittance spectra. The SPF value, UVA protection factor value (UVAPF), the […], and the critical wavelength (λc) were determined from the transmittance spectra using SPF calculator software and are presented in Table 3. These parameters are essential for evaluating the efficacy of potential sunscreen products.
# [3] = UV spectrophotometric analysis of compounds in solution; assay type: physicochemical; conditions: at ʎmax, Lambert–Beer equation
# Experimental: The synthesized compounds were solubilised in DMSO and diluted in MeOH, and the absorbance of the 10 µg/mL solution was measured between 290–400 nm with a UV-Vis spectrophotometer (SHIMADZU UV-2600 240 V, 1 cm quartz cell at 1 nm intervals). The absorbance at wavelength λ is related to the transmittance T(λ) via the Equation (1): A(λ) = −Log[T(λ)](1) where T(λ) is the fraction of incident irradiance transmitted by the sample. […]
# The molar extinction coefficient was calculated with the absorbance recorded at the ʎmax applying the Lambert–Beer equation.
# [4] = Photostability of O/W emulsions under solar simulator; assay type: physicochemical; conditions: O/W emulsion on PMMA
# Experimental: Oil-in-water (O/W) emulsions containing individual filters were spread on PMMA sheet and irradiated with a solar simulator by applying different doses of UVA equivalent to an erythema effective radiant exposure of 100 J/m^2. Photostability was assessed by analysing the spectral transmittance, before and after irradiation, of the sunscreen thin film, measured before and after exposure from 290 to 400 nm. The residual percentages of SPF in vitro (%SPFeff.) and UVAPF (%UVAPFeff.) were calculated according to Equations (6) and (7), respectively. When the %SPFeff. and %UVAPFeff. are greater than or equal to 80, according to current regulations, a filter can be considered photostable [37].
# To evaluate the effectiveness and safety profile of a sunscreen formulation, it is necessary to provide data on its photostability. Photodegradation data can be obtained by recording the pre- and post-irradiation transmittance spectra of PMMA plates with finger-coat formulations exposed to a dose of UVA capable of causing erythema. This method, established by Garoli et al., is used to determine photostability. The sun protection layer’s transmission in the range of 290–400 nm is recorded before and after exposure to sunlight, following the protocol.
# The residual percentages of SPF in vitro (%SPFeff.) and UVAPf (%UVAPfeff.) were calculated using Equations (6) and (7) and are listed in Table 4. A filter can be classified as photostable if the %SPFeff. is greater than or equal to 80, according to regulatory standards. %SPFeff. = in vitro SPFafter/in vitro SPFbefore × 100(6) %UVAPfeff. = UVAPfafter/UVAPfbefore × 100(7) where SPFafter and SPFbefore are the SPF values calculated from the software after and before solar irradiation, and UVAPfafter and UVAPfbefore are the UVAPf values calculated from the software after and before solar irradiation.
# [5] = target: T1, 5-LO in A23187-stimulated human PMNL (Homo sapiens, UniProt P09917); assay: 5-Lipoxygenase inhibition in a cell-based assay (PMNL); conditions: PMNL; 3 µM; % relative to vehicle (DMSO); read-out: 5-LO Residual Activity (PMNL)
# T1 construct: Freshly isolated PMNL (1 × 10^6 cells/mL) in PBS buffer pH 7.4; endogenous in cells; host or cells: primary human PMNL (neutrophils) isolated from blood
# T1 sequence (P09917 1-674): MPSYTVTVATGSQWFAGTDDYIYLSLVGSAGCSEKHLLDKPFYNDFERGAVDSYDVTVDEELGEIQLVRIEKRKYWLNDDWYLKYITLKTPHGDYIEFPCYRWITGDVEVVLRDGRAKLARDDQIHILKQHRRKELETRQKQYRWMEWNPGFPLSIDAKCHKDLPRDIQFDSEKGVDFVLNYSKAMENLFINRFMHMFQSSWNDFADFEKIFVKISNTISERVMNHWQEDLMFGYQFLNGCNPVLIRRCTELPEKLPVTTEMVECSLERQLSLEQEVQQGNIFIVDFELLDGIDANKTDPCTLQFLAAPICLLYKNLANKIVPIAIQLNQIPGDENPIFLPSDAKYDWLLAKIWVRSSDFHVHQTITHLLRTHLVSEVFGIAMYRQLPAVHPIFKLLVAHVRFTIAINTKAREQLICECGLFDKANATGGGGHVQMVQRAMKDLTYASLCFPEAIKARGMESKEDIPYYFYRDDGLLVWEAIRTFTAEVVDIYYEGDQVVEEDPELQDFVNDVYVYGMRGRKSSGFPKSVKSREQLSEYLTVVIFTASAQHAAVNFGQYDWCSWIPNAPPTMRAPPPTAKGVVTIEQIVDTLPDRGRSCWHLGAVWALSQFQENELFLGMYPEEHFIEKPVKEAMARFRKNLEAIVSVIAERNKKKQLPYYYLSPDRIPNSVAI
# Experimental: Following blood density centrifugation and cell population separation, PMNL was recovered from the pellet after hypotonic lysis of erythrocytes. Freshly isolated PMNL (1 × 10^6 cells/mL) in PBS buffer pH 7.4 with glucose (1 mg/mL) and CaCl2 (1 mM) was pre-incubated with the test compounds for 10 min at 37 °C. Then, 5-lipoxygenase (5-LO) product formation was started by addition of 2.5 μM Ca^2+-ionophore A23187 plus 20 μM arachidonic acid. The reaction was stopped after 10 min at 37 °C with 1 mL of ice-cold methanol containing 200 ng PGB1 as internal standard. Major 5-LO products (LTB4, trans-LTB4, epi-trans-LTB4, and 5-HETE) were extracted by SPE using Sep-Pak C18 35 cc Vac Cartridges (Waters, Milford, MA, USA) and analysed by UPLC-MS/MS as described by Pein et al..
# [6] = target: T2, Human recombinant 5-LO (Homo sapiens, UniProt P09917); assay: 5-Lipoxygenase inhibition in a cell-free assay; assay type: biochemical; conditions: 3 µM; % relative to vehicle (DMSO); read-out: 5-LO Residual Activity (Cell-Free)
# T2 construct: made in house
# T2 sequence (P09917 1-674): T1 sequence (P09917 1-674)
# Experimental: Human recombinant 5-LO was expressed and isolated as described before, and immediately used for activity assays after isolation. The 5-LO (0.5 µg, in 1 mL PBS pH 7.4 containing 1 mM EDTA) was pre-incubated with the test compounds for 10 min at 4 °C and pre-warmed for 30 s at 37 °C. 5-LO product formation was initiated by sequential addition of 1 mM CaCl2 and 20 μM arachidonic acid. After 10 min at 37 °C, the reaction was terminated by addition of 1 mL ice-cold methanol containing 200 ng PGB1 as internal standard. Formed 5-LO products (trans-LTB4, epi-trans-LTB4, and 5-HETE) were extracted using Sep-Pak C18 35 cc Vac Cartridges and analysed by UPLC-MS/MS as previously described.
# [7] = system: human melanoma Colo38 cells; assay: Cell growth inhibition assay, Colo38; assay type: cell-based; conditions: 24 h incubation; mean ± SD
# Experimental: Cell growth inhibition analyses were performed on human melanoma Colo38 cells and skin HaCat keratinocytes. Human melanoma Colo38 cells were kindly given by Dr. Patrizio Giacomini (Laboratory of Immunology, Regina Elena Institute, Rome, Italy). HaCat cells were obtained from Istituto Zooprofilattico Sperimentale della Lombardia e dell’Emilia-Romagna, Brescia, Italy. Cells were seeded at 40,000 cells/mL and 25,000 cells/mL, respectively. Colo38 cells were maintained in RPMI 1640, supplemented with 10% foetal bovine serum (FBS), penicillin (100 Units/mL), and streptomycin (100 µg/mL). HaCat cells were maintained in DMEM, supplemented with 10% fatal bovine serum (FBS), penicillin (100 Units/mL), streptomycin (100 µg/mL) and glutamine (2 mM); the incubation was performed at 37 °C in a 5% CO2 atmosphere. Compounds were dissolved in DMSO to obtain 50 mM stock solutions and diluted before cell treatment in MeOH. The tested compounds were added at serial dilutions to the cell cultures (from 0.1 to 100 µM) and incubated for 24 h further. Cells were then harvested, suspended in physiological solution, and counted with a Z2 Coulter Counter (Coulter Electronics, Hialeah, FL, USA). The number of cells/mL and the IC50 values were determined when untreated cells were in the log phase of cell growth. Samples of vehicles and untreated cells were included in each plate. Cisplatin was used as positive control for the HaCat cells, while N1-(4-arylidene)-1H-(2-OH-4-N(Et)2-phenyl)-[d]imidazole-2-carbohydrazide was used as positive control for the Colo38 cell line.
compound,measurement,setting,value
"c1ccc2c(c1)[I+]c1ccccc1-2 [DPI, Diphenyleneiodonium, reference compound]",ROS Production (% of Control),[1],16.44 ± 2.14 % of control
"O=S(=O)(O)c1ccc2[nH]c(-c3ccccc3)nc2c1 [PBSA, 2-Phenyl-1H-Benzimidazole-5-Sulphonic Acid, reference compound]",SPF,[2],1.91
same,UVA/UVB,[2],0.67
same,UVAPF,[2],1.13
same,ʎc (critical wavelength),[2],357 nm
same,Ɛ (molar extinction coefficient),[3],"23,881.86 dm^3 mol^−1 cm^−1"
same,%UVAPfeff.,[4]; residual UVAPF after solar irradiation,100.00%
same,%SPFeff.,[4]; residual in vitro SPF after solar irradiation,103.66%
"CC(c1cc2ccccc2s1)N(O)C(N)=O (centres unmarked) [Zileuton, zileuton, reference compound]",remaining activity at 3 µM,[5],31.3 ± 12.7%
same,remaining activity at 3 µM,[6],28.6 ± 7.38%
"N^1-(4-arylidene)-1H-(2-OH-4-N(Et)2-phenyl)-[d]imidazole-2-carbohydrazide [Cmp 13, reference compound]",IC50,[7],700 ± 60 nM
